Results on eight molecules are retold here after PubChem BioAssay (NCI).

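All cell lines were grown in 96-well plates and treated with compound for 48 hours. GI50 is the concentration that inhibits growth by half. The concentration for full growth arrest is given as TGI.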 Where a SMILES comes first, the peptide text is derived from it. [ ]: non-standard residue; d: D form. The star is where a group is joined. ξ: configuration not given here. dIva = CC[C@@](C)(N)C(=O)O; Aib = CC(C)(N)C(=O)O; ξP = O=C(O)C1CCCN1; βAla = NCCC(=O)O; X5 = OCN* Where only a bound is given, the exact number is not on record here.

Some test systems named below: BT-549 breast; DU-145 prostate; NCI/ADR-RES ovarian; SF-539 CNS; SK-MEL-2 melanoma; SN12C renal; TK-10 renal; UACC-257 melanoma; UO-31 renal; HOP-92 NSCLC.
What all share (experiment): DTP human tumour cell line panel, 48 h

With `NS(=O)(=O)c1ccc(N=Nc2c(=O)[nH]c3ccc4[nH]cccc4c23)cc1`, the GI50 – broadly, the concentration giving 50% growth inhibition – was 498 nM with BT-549 breast; 611 nM in the experiment on DU-145 prostate; greater than 15.8 µM in the experiment on NCI/ADR-RES ovarian; 295 nM with SF-539 CNS; 0.182 µM in the experiment on SK-MEL-2 melanoma; 470 nM in the experiment on SN12C renal. Moreover, the GI50 in the experiment on TK-10 renal is 699 nM; with UACC-257 melanoma it was 828 nM; with UO-31 renal, 1680 nM. The concentration for total growth inhibition (TGI) (in general, the concentration giving total growth inhibition) with BT-549 breast is 1.72 µM; in the experiment with DU-145 prostate it was greater than 7.96 µM; in the experiment with NCI/ADR-RES ovarian, greater than 25 µM; in the experiment on SF-539 CNS, 1.46 µM; with SK-MEL-2 melanoma, 0.696 µM; in the experiment on SN12C renal, greater than 25 µM. Further, the figures for the TGI in the experiment with TK-10 renal, with UACC-257 melanoma and with UO-31 renal were 2240 nM, 6.98 µM and greater than 25 µM, respectively.
On to `COc1cc[nH]c1/C=C1\C(=O)Nc2ccc([N+](=O)[O-])c(N3CC[C@@H](O)C3)c21`, for which the 50% growth inhibitory concentration (GI50) is 328 nM in the experiment on BT-549 breast; 177 nM in the experiment on DU-145 prostate; 0.544 µM with HOP-92 NSCLC; 0.53 µM in the experiment with NCI/ADR-RES ovarian; 102 nM in the experiment with SF-539 CNS; 0.229 µM with SK-MEL-2 melanoma. The GI50 in the experiment on SN12C renal was 211 nM; with TK-10 renal, 512 nM; in the experiment on UACC-257 melanoma, 474 nM; in the experiment with UO-31 renal it was 267 nM. In addition, the TGI in the experiment on BT-549 breast amounted to 1.59 µM; in the experiment with DU-145 prostate, 2.83 µM; with HOP-92 NSCLC, 2.47 µM; with NCI/ADR-RES ovarian it was 5.83 µM; with SF-539 CNS, 0.386 µM; in the experiment on SK-MEL-2 melanoma, 0.688 µM. Besides, the total growth inhibition concentration (TGI) is 4 µM with SN12C renal, 1610 nM in the experiment on TK-10 renal, 1.64 µM with UACC-257 melanoma and 3.44 µM in the experiment on UO-31 renal.
On to `COc1cc(OC)c2c(c1Cl)O[C@]1(C2=O)C(OCc2ccccc2)=CC(=O)C[C@H]1C`, for which the GI50 in the experiment on BT-549 breast is 2280 nM; in the experiment on DU-145 prostate, 485 nM; in the experiment with NCI/ADR-RES ovarian, 0.584 µM; in the experiment with SF-539 CNS it was 884 nM; in the experiment with SN12C renal, 833 nM; with TK-10 renal, 4340 nM. Besides, the GI50 in the experiment with UACC-257 melanoma is 1760 nM; with UO-31 renal, 2510 nM. Besides, the total growth inhibition concentration (TGI) in the experiment on BT-549 breast amounted to 21.1 µM; in the experiment on DU-145 prostate, 5.63 µM; in the experiment with NCI/ADR-RES ovarian it was 3.72 µM; in the experiment on SF-539 CNS, 9.28 µM; in the experiment on SN12C renal, 14 µM; in the experiment on TK-10 renal, 63200 nM. Besides, the values for the TGI with UACC-257 melanoma and in the experiment with UO-31 renal were 49.2 µM and 61.2 µM, respectively.
For the molecule `CC[C@@](C)(NC(=O)[C@H](C)NC(=O)CCNC(=O)C(C)(C)NC(=O)[C@H](C)NC(=O)[C@@H]1CCCN1C(=O)[C@@](C)(CC)NC(=O)[C@H](Cc1ccccc1)NC(=O)C1CCCN1C(=O)C(C)(C)NC(=O)C1CCCN1C(=O)C(C)(C)NC(C)=O)C(=O)NCCC(=O)N[C@@H](CC(C)C)C(=O)NC(C)(C)C(=O)NCCC(=O)N[C@@H](CC(C)C)C(=O)NC(C)(C)C(=O)NC(C)(C)C(=O)N[C@@H](CC(C)C)C(=O)NCCC(=O)NCO` (some centres undefined) (Ac-[Aib][ξP][Aib][ξP]F[dIva]PA[Aib][βAla]A[dIva][βAla]L[Aib][βAla]L[Aib][Aib]L[βAla]-X5), the 50% growth inhibitory concentration (GI50) with BT-549 breast was 69.9 nM; in the experiment on DU-145 prostate, 125 nM; with NCI/ADR-RES ovarian it was 0.238 µM; in the experiment on SF-539 CNS it was 131 nM; in the experiment with SK-MEL-2 melanoma it was 0.202 µM; in the experiment on SN12C renal it was 119 nM. For the same molecule, the values for the GI50 with TK-10 renal, in the experiment on UACC-257 melanoma and in the experiment on UO-31 renal were 153 nM, 57.9 nM and 179 nM, respectively. Besides, the TGI is 0.266 µM with BT-549 breast; 0.338 µM in the experiment with DU-145 prostate; 0.488 µM in the experiment with NCI/ADR-RES ovarian; 0.354 µM with SF-539 CNS; 0.427 µM in the experiment with SK-MEL-2 melanoma; 0.373 µM in the experiment with SN12C renal. For the same molecule, the total growth inhibition concentration (TGI) in the experiment on TK-10 renal was 353 nM; in the experiment on UACC-257 melanoma, 0.21 µM; with UO-31 renal, 0.391 µM.
For `N#CC1C(=O)NC(=O)C(C#N)C1c1ccc(Cl)c(Cl)c1` (centres undefined), the TGI was greater than 100 µM with BT-549 breast; greater than 100 µM in the experiment on DU-145 prostate; greater than 100 µM in the experiment on HOP-92 NSCLC; 83.1 µM with NCI/ADR-RES ovarian; 42.6 µM with SF-539 CNS; greater than 100 µM in the experiment with SK-MEL-2 melanoma. Besides, the TGI in the experiment with TK-10 renal turned out to be 98400 nM; in the experiment on UACC-257 melanoma it was 86.7 µM; in the experiment with UO-31 renal, 33.2 µM.
As for `COn1cc(C(=O)N=C(SC)SC)c2ccccc21`, the GI50 in the experiment on BT-549 breast is 19200 nM; in the experiment with DU-145 prostate, 30900 nM; in the experiment on HOP-92 NSCLC, 27.7 µM; with NCI/ADR-RES ovarian it was 18.2 µM; in the experiment on SF-539 CNS, 18700 nM; in the experiment on SK-MEL-2 melanoma, 17.6 µM. In addition, the GI50 in the experiment with SN12C renal is 22400 nM; in the experiment on UACC-257 melanoma, 18200 nM; in the experiment with UO-31 renal it was 40900 nM. Also, the concentration for total growth inhibition (TGI) in the experiment on BT-549 breast was 63.3 µM; in the experiment on DU-145 prostate, greater than 100 µM; with HOP-92 NSCLC, greater than 100 µM; with NCI/ADR-RES ovarian, 42.5 µM; in the experiment with SF-539 CNS it was 43.4 µM; in the experiment with SK-MEL-2 melanoma it was 52 µM. Also, the TGI in the experiment with SN12C renal is 74.3 µM; in the experiment with UACC-257 melanoma, 59.2 µM; in the experiment on UO-31 renal it was greater than 100 µM.
With `Nc1nc(N)c(-c2ccc(Cl)cc2)c(/C=C/c2ccc([N+](=O)[O-])cc2)n1`, the GI50 with BT-549 breast was 13100 nM; with DU-145 prostate it was 6660 nM; in the experiment with NCI/ADR-RES ovarian it was 7.99 µM; in the experiment on SF-539 CNS, 7150 nM; in the experiment on SK-MEL-2 melanoma it was 18.6 µM; in the experiment with SN12C renal it was 8020 nM. For the same molecule, the GI50 was 7510 nM with UACC-257 melanoma and 21400 nM with UO-31 renal. For the same molecule, the TGI with BT-549 breast was 90.3 µM; in the experiment on DU-145 prostate it was greater than 100 µM; in the experiment on NCI/ADR-RES ovarian, greater than 100 µM; with SF-539 CNS, 30 µM; with SK-MEL-2 melanoma, 67.2 µM; with SN12C renal, greater than 100 µM. The total growth inhibition concentration (TGI) in the experiment on UACC-257 melanoma and in the experiment on UO-31 renal was greater than 100 µM each time.
Turning to `C=C1C(OCCO)OC2O[C@]3(C)CCC4[C@H](C)CCC1C24OO3` (some centres undefined), the GI50 in the experiment with BT-549 breast is 10800 nM; in the experiment on DU-145 prostate it was 36300 nM; in the experiment with NCI/ADR-RES ovarian, 36 µM; in the experiment on SF-539 CNS, 36600 nM; with SK-MEL-2 melanoma it was 71.1 µM; in the experiment on UACC-257 melanoma, greater than 100000 nM. Further, the GI50 with UO-31 renal is 2780 nM. For the same molecule, the TGI was 71.2 µM in the experiment with BT-549 breast; greater than 100 µM in the experiment on DU-145 prostate; greater than 100 µM with NCI/ADR-RES ovarian; greater than 100 µM with SF-539 CNS; greater than 100 µM in the experiment with SK-MEL-2 melanoma; greater than 100 µM with UACC-257 melanoma. The same molecule yielded a total growth inhibition concentration (TGI) in the experiment on UO-31 renal of 10.2 µM.
